Kd data for 36 compounds are collected here from patent US9187490B2, “Dimeric IAP inhibitors” (TetraLogic Pharmaceuticals Corporation, priority 2005, dated 2015).

A value given as a limit tells only on which side of the number the result lay.

A word on the Kd: it is the free concentration of one partner at which half of the binding sites on the other are occupied at equilibrium, for simple one-to-one binding.

T1 sequence (P98170 241-356 limits assumed): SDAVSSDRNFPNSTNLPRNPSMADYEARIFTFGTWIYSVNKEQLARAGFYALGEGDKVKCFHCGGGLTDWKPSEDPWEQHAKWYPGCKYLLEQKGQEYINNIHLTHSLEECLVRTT

One assay addresses T1, XIAP-BIR3 (Homo sapiens, UniProt P98170).
T1 construct: 40 nM of XIAP-BIR3 for 15 min at RT
Put plainly: XIAP BIR-3 fluorescence polarization binding assay. Particulars: 5 nM AbuRPF-K(5-Fam)-NH2, 40 nM XIAP-BIR3, 15 min RT, pH 7.5; read-out: KD Range. As to the method: Following incubation, the polarization values (mP) were measured on a Victor^2V using a 485 nm excitation filter and a 520 nm emission filter. IC50 values were determined from the plot using nonlinear least-squares analysis using GraphPad Prism.
On to `CN[C@@H](C)C(=O)N[C@H](C(=O)N1C[C@H](O)C[C@H]1Cc1c(-c2ccc(-c3[nH]c4ccccc4c3C[C@@H]3C[C@@H](O)CN3C(=O)[C@@H](NC(=O)[C@H](C)NC)C(C)C)cc2)[nH]c2ccccc12)C(C)C` [Entry 37], for which the equilibrium dissociation constant (Kd) fell in the range of 100 to 1000 nM.
On the same count and under the same terms, with `CN[C@@H](C)C(=O)N[C@H](C(=O)N1CCC[C@H]1Cc1c(-c2ccc(-c3[nH]c4cc(F)ccc4c3C[C@@H]3CCCN3C(=O)[C@@H](NC(=O)[C@H](C)NC)C3CCCCC3)cc2)[nH]c2cc(F)ccc12)C1CCCCC1` [Entry 38] the figure was less than 100 nM; with `C[C@H](N)C(=O)N[C@H](C(=O)N1CCC[C@H]1Cc1c(-c2ccc(-c3[nH]c4cc(F)ccc4c3C[C@@H]3CCCN3C(=O)[C@@H](NC(=O)[C@H](C)N)C3CCCCC3)cc2)[nH]c2cc(F)ccc12)C1CCCCC1` [Entry 39], less than 100 nM; with `CN[C@@H](C)C(=O)N[C@H](C(=O)N1C[C@@H](O)C[C@H]1Cc1c(-c2ccc(-c3[nH]c4ccc(F)cc4c3C[C@@H]3C[C@H](O)CN3C(=O)[C@@H](NC(=O)[C@H](C)NC)C(C)C)cc2)[nH]c2ccc(F)cc12)C(C)C` [Entry 40], 100 to 1000 nM.
Same read-out and setting: with `CN[C@@H](C)C(=O)N[C@H](C(=O)N1C[C@@H](O)C[C@H]1Cc1c(-c2ccc(-c3[nH]c4ccc(F)cc4c3C[C@@H]3C[C@H](O)CN3C(=O)[C@@H](NC(=O)[C@H](C)NC)C(C)(C)C)cc2)[nH]c2ccc(F)cc12)C(C)(C)C` [Entry 41] the figure was less than 100 nM; with `CN[C@@H](C)C(=O)N[C@H](C(=O)N1CCC[C@H]1Cc1c(-c2ccc(-c3c(C[C@@H]4CCCN4C(=O)[C@@H](NC(=O)[C@H](C)N)[C@@H](C)O)c4ccc(F)cc4n3CCO)cc2)n(CCO)c2cc(F)ccc12)[C@@H](C)O` [Entry 43], less than 100 nM; with `CN[C@@H](C)C(=O)N[C@H](C(=O)N1CCC[C@H]1Cc1c(-c2ccc(-c3c(C[C@@H]4CCCN4C(=O)[C@@H](NC(=O)[C@H](C)NC)[C@@H](C)O)c4ccc(F)cc4n3CCO)cc2)n(CCO)c2cc(F)ccc12)[C@@H](C)O` [Entry 44], less than 100 nM.
Still for that read-out and setting: under `CN[C@@H](C)C(=O)N[C@H](C(=O)N1CCC[C@H]1Cc1c(-c2ccc(-c3c(C[C@@H]4CCCN4C(=O)[C@@H](NC(=O)[C@H](C)N)[C@@H](C)O)c4ccc(F)cc4n3CCOC(C)=O)cc2)n(CCOC(C)=O)c2cc(F)ccc12)[C@@H](C)O` [Entry 45] stands less than 100 nM; under `CN[C@@H](C)C(=O)N[C@H](C(=O)N1CCC[C@H]1Cc1c(-c2ccc(-c3c(C[C@@H]4CCCN4C(=O)[C@@H](NC(=O)[C@H](C)NC)C(C)C)c4ccc(F)cc4n3CCO)cc2)n(CCO)c2cc(F)ccc12)C(C)C` [Entry 46], less than 100 nM.
As to `CN[C@@H](C)C(=O)N[C@H](C(=O)N1CCC[C@H]1Cc1c(-c2ccc(-c3c(C[C@@H]4CCCN4C(=O)[C@@H](NC(=O)[C@H](C)NC)C(C)C)c4ccc(F)cc4n3CCOC(C)=O)cc2)n(CCOC(C)=O)c2cc(F)ccc12)C(C)C` [Entry 47], the dissociation constant (Kd) is less than 100 nM.
On the same count and under the same terms, with `CN[C@@H](C)C(=O)N[C@H](C(=O)N1CCC[C@H]1Cc1c(-c2ccc(-c3c(C[C@@H]4CCCN4C(=O)[C@@H](NC(=O)[C@H](C)NC)C(C)(C)C)c4ccc(F)cc4n3CCOC(C)=O)cc2)n(CCOC(C)=O)c2cc(F)ccc12)C(C)(C)C` [Entry 49] the figure was less than 100 nM; with `CN[C@@H](C)C(=O)N[C@H](C(=O)N1CCC[C@H]1Cc1c(-c2ccc(-c3c(C[C@@H]4CCCN4C(=O)[C@@H](NC(=O)[C@H](C)NC)[C@@H](C)O)c4ccc(F)cc4n3CCOC)cc2)n(CCOC)c2cc(F)ccc12)[C@@H](C)O` [Entry 50], less than 100 nM; with `CN[C@@H](C)C(=O)N[C@H](C(=O)N1CCC[C@H]1Cc1c(-c2ccc(-c3c(C[C@@H]4CCCN4C(=O)[C@@H](NC(=O)[C@H](C)NC)C(C)(C)C)c4ccc(F)cc4n3CCOC)cc2)n(CCOC)c2cc(F)ccc12)C(C)(C)C` [Entry 51], less than 100 nM.
Take `CN[C@@H](C)C(=O)N[C@H](C(=O)N1CCC[C@H]1Cc1c(-c2ccc(-c3c(C[C@@H]4CCCN4C(=O)[C@@H](NC(=O)[C@H](C)NC)C(C)C)c4ccc(F)cc4n3CCOC)cc2)n(CCOC)c2cc(F)ccc12)C(C)C` [Entry 52]: the Kd is less than 100 nM.
The same measure, in the same setting: with `COCCn1c(-c2ccc(-c3c(C[C@@H]4CCCN4C(=O)[C@@H](NC(=O)[C@H](C)N)C(C)C)c4ccc(F)cc4n3CCOC)cc2)c(C[C@@H]2CCCN2C(=O)[C@@H](NC(=O)[C@H](C)N)C(C)C)c2ccc(F)cc21` [Entry 53] the figure was less than 100 nM.
Turning to `CN[C@@H](C)C(=O)N[C@H](C(=O)N1CCC[C@H]1Cc1c(-c2ccc(-c3c(C[C@@H]4CCCN4C(=O)[C@@H](NC(=O)[C@H](C)NC)C(C)(C)C)c4cc(F)ccc4n3CCO)cc2)n(CCO)c2ccc(F)cc12)C(C)(C)C` [Entry 54], the Kd was less than 100 nM.
As for `CN[C@@H](C)C(=O)N[C@H](C(=O)N1CCC[C@H]1Cc1c(-c2ccc(-c3c(C[C@@H]4CCCN4C(=O)[C@@H](NC(=O)[C@H](C)NC)C(C)C)c4cc(F)ccc4n3CCO)cc2)n(CCO)c2ccc(F)cc12)C(C)C` [Entry 55], the Kd was less than 100 nM.
Still for that read-out and setting: under `CN[C@@H](C)C(=O)N[C@H](C(=O)N1CCC[C@H]1Cc1c(-c2ccc(-c3c(C[C@@H]4CCCN4C(=O)[C@@H](NC(=O)[C@H](C)NC)[C@@H](C)O)c4cc(F)ccc4n3CCO)cc2)n(CCO)c2ccc(F)cc12)[C@@H](C)O` [Entry 56] stands less than 100 nM; under `CN[C@@H](C)C(=O)N[C@H](C(=O)N1CCC[C@H]1Cc1c(-c2ccc(-c3c(C[C@@H]4CCCN4C(=O)[C@@H](NC(=O)[C@H](C)NC)C(C)C)c4ccc(F)cc4n3C)cc2)n(C)c2cc(F)ccc12)C(C)C` [Entry 57], less than 100 nM; under `CN[C@@H](C)C(=O)N[C@H](C(=O)N1CCC[C@H]1Cc1c(-c2ccc(-c3c(C[C@@H]4CCCN4C(=O)[C@@H](NC(=O)[C@H](C)NC)[C@@H](C)O)c4ccc(F)cc4n3C)cc2)n(C)c2cc(F)ccc12)[C@@H](C)O` [Entry 58], less than 100 nM.
The same measure, in the same setting: under `CN[C@@H](C)C(=O)N[C@H](C(=O)N1CCC[C@H]1Cc1c(-c2ccc(-c3c(C[C@@H]4CCCN4C(=O)[C@@H](NC(=O)[C@H](C)NC)C(C)(C)C)c4ccc(F)cc4n3C)cc2)n(C)c2cc(F)ccc12)C(C)(C)C` [Entry 59] stands less than 100 nM; under `CN[C@@H](C)C(=O)N[C@H](C(=O)N1CCC[C@H]1Cc1c(-c2ccc(-c3c(C[C@@H]4CCCN4C(=O)[C@@H](NC(=O)[C@H](C)NC)C(C)C)c4ccc(F)cc4n3CCOC(C)=O)cc2)[nH]c2cc(F)ccc12)C(C)C` [Entry 64], less than 100 nM; under `CN[C@@H](C)C(=O)N[C@H](C(=O)N1CCC[C@H]1Cc1c(-c2ccc(-c3c(C[C@@H]4CCCN4C(=O)[C@@H](NC(=O)[C@H](C)NC)C(C)C)c4ccc(F)cc4n3CCO)cc2)[nH]c2cc(F)ccc12)C(C)C` [Entry 67], less than 100 nM.
Same read-out and setting: with `CN[C@H](C)C(=O)N[C@H](C(=O)N1CCC[C@H]1Cc1c(-c2ccc(-c3c(C[C@@H]4CCCN4C(=O)[C@@H](NC(=O)[C@@H](C)NC)C(C)(C)C)c4ccc(F)cc4n3CCO)cc2)[nH]c2cc(F)ccc12)C(C)(C)C` [Entry 71] the figure was 100 to 1000 nM.

Staying with this assay, now noted: Example 4 series; read-out: KD Range.
`CNC(C)C(=O)NC(C(=O)N1CCCC1Cc1c(-c2[nH]c3cc(F)ccc3c2CC2CCCN2C(=O)C(NC(=O)C(C)NC)C(C)O)[nH]c2cc(F)ccc12)C(C)O` (stereo not drawn) [Entry 72]: the Kd was less than 100 nM.
For the compound `CN[C@@H](C)C(=O)N[C@H](C(=O)N1CCC[C@H]1Cc1c(-c2[nH]c3cc(F)ccc3c2C[C@@H]2CCCN2C(=O)[C@@H](NC(=O)[C@H](C)NC)C(C)C)[nH]c2cc(F)ccc12)C(C)C` [Entry 73], the Kd is less than 100 nM.
As to `CN[C@@H](C)C(=O)N[C@H](C(=O)N1CCC[C@H]1Cc1c(-c2[nH]c3cc(F)ccc3c2C[C@@H]2CCCN2C(=O)[C@@H](NC(=O)[C@H](C)N)C(C)C)[nH]c2cc(F)ccc12)C(C)C` [Entry 74], the Kd was less than 100 nM.
Still for that read-out and setting: with `CN[C@@H](C)C(=O)N[C@H](C(=O)N1CCC[C@H]1Cc1c(-c2[nH]c3ccc(F)cc3c2C[C@@H]2CCCN2C(=O)[C@@H](NC(=O)[C@H](C)NC)C(C)C)[nH]c2ccc(F)cc12)C(C)C` [Entry 75] the figure was less than 100 nM.
On the same count and under the same terms, with `CN[C@@H](C)C(=O)NCC(=O)N1CCC[C@H]1Cc1c(-c2[nH]c3cc(F)ccc3c2C[C@@H]2CCCN2C(=O)CNC(=O)[C@H](C)NC)[nH]c2cc(F)ccc12` [Entry 76] the figure was 100 to 1000 nM; with `CN[C@@H](C)C(=O)N[C@@H](C)C(=O)N1CCC[C@H]1Cc1c(-c2[nH]c3cc(F)ccc3c2C[C@@H]2CCCN2C(=O)[C@H](C)NC(=O)[C@H](C)NC)[nH]c2cc(F)ccc12` [Entry 77], 100 to 1000 nM; with `CNC(C)C(=O)NC(C(=O)N1CCCC1Cc1c(-c2[nH]c3cc(F)ccc3c2CC2CCCN2C(=O)C(NC(=O)C(C)NC)C(C)O)[nH]c2cc(F)ccc12)C(C)O` (stereo not drawn) [Entry 78], less than 100 nM.
On the same count and under the same terms, under `CC[C@H](NC(=O)[C@H](C)NC)C(=O)N1CCC[C@H]1Cc1c(-c2[nH]c3cc(F)ccc3c2C[C@@H]2CCCN2C(=O)[C@H](CC)NC(=O)[C@H](C)NC)[nH]c2cc(F)ccc12` [Entry 79] stands less than 100 nM.
`CNC(C)C(=O)NC(C(=O)N1CCCC1Cc1c(-c2[nH]c3ccc(F)cc3c2CC2CCCN2C(=O)C(NC(=O)C(C)NC)C(C)O)[nH]c2ccc(F)cc12)C(C)O` (stereo not drawn) [Entry 80]: the Kd is less than 100 nM.
Same read-out and setting: under `CC(C)[C@H](NC(=O)CN)C(=O)N1CCC[C@H]1Cc1c(-c2[nH]c3cc(F)ccc3c2C[C@@H]2CCCN2C(=O)[C@@H](NC(=O)CN)C(C)C)[nH]c2cc(F)ccc12` [Entry 81] stands 100 to 1000 nM.
For the compound `CCC(C)[C@H](NC(=O)[C@H](C)NC)C(=O)N1CCC[C@H]1Cc1c(-c2[nH]c3ccc(F)cc3c2C[C@@H]2CCCN2C(=O)[C@@H](NC(=O)[C@H](C)NC)C(C)CC)[nH]c2ccc(F)cc12` (stereo partly drawn) [Entry 82], the Kd was less than 100 nM.
On the same count and under the same terms, under `CN[C@@H](C)C(=O)N[C@H](C(=O)N1CCC[C@H]1Cc1c(-c2[nH]c3ccc(F)cc3c2C[C@@H]2CCCN2C(=O)[C@@H](NC(=O)[C@H](C)NC)C2CCCCC2)[nH]c2ccc(F)cc12)C1CCCCC1` [Entry 83] stands less than 100 nM.
